PMC10979003, “Development and crystal structures of a potent second-generation dual degrader of BCL-2 and BCL-xL” (Nature Communications, 2024)
pIC50: −log10 of the molar value. One block for each compound: values may come before it. Residues, ends and D or L forms follow the SMILES beside them. *: point of attachment. Cbz = O=C(OCc1ccccc1)*

Assays:
BCL-xL/BCL-2 = assay: Blocking of WH244-induced BCL-xL/BCL-2 degradation in Jurkat cells (immunoblot); format: cell-based, human; conditions: for Effect of proteasome / NEDD8-activating enzyme inhibition on WH244-mediated degradation of BCL-xL and BCL-2: Jurkat cells
Experimental: The data are presented as mean ± s.d. from three replicate cell cultures in a representative experiment for Jurkat cells. h Left, WH244 induces polyubiquitination of WT, K22R BCL-2 and to some extent K17R but not K17/22R BCL-2 in 293T cells. 293T cells were co-transfected as indicated with Flag-BCL−2 WT or mutants and HA-tagged ubiquitin (HA-Ub) plasmids. After 36 h, cells were pretreated with MG132 (10 µM) for 2 h and then treated with or without WH244 (1 μM) for 5 h. The Flag-tagged proteins were immunoprecipitated (IP) and immunoblotted with HA or Flag antibody. Right, The input blot for this assay. Data are a representative of two independent experiments. Source data are provided as Source Data file.
A series of experiments were performed to assess the efficacy of WH244. […] These DC50 values were ~6.2 and 6.8-fold better than of 753b for BCL-xL (DC50 of 3.7 nM) and BCL-2 (DC50 of 50 nM), respectively. Also, WH244-mediated proteolysis of BCL-xL and BCL-2 was time-dependent with BCL-xL degrading faster than BCL-2 (Fig. 3c). […]
Cells were collected, washed once with ice-cold phosphate-buffered saline, pH 7.2 (PBS, cat. no. 20012027; Thermo Fisher Scientific) and lysed in RIPA lysis buffer (Cat. No. BP-115DG, Boston Bio Products, Ashland, MA, USA) supplemented with protease and phosphatase inhibitor cocktails (Cat. No. PPC1010, Sigma-Aldrich, St. Louis, MO, USA) through sonication. […] The protein concentration in the supernatants was determined using the Pierce BCA protein Assay kit (cat. no. 23225, Thermo Fisher Scientific). […] The membranes were blocked with non-fat dry milk (5% wt/vol) in 1×Tris- buffered saline-Tween-20 (TBST) for 1 h at room temperature, and were subsequently probed with primary antibodies at a pre-determined optimal concentration in non-fat dry milk (5% wt/vol in TBST) overnight at 4 °C. […] Following sufficient washing with TBST, the membranes were exposed with ECL Western Blotting Substrate (Bio-Rad), and the signal was detected using the ChemiDoc MP Imaging System (Bio-Rad) and quantified using the ImageJ (v1.53a) software from NIH. […]

RS4 B-ALL cells = assay: Potency against RS4 B-ALL cells in vitro; format: cell-based
human platelets = assay: Potency against human platelets in vitro; format: cell-based; conditions: Platelet; human platelets in vitro
MOLT-4 T-ALL cells = assay: Potency against MOLT-4 T-ALL cells in vitro; format: cell-based; conditions: Homo sapiens
BCL-xL and BCL-2 = system: BCL-xL and BCL-2; parameters: method as in Khan S et al. Nat Med, 25: 1938-1947, 2019; conditions: ref Khan S et al. Nat Med, 25: 1938-1947, 2019; cited from earlier work

SMILES: CC(C)C[C@@H](C=O)NC(=O)[C@H](CC(C)C)NC(=O)[C@H](CC(C)C)NC(=O)OCc1ccccc1 [MG132] (Cbz-Leu-Leu-Leu-aldehyde)
- Effect of proteasome / NEDD8-activating enzyme inhibition on WH244-mediated degradation of BCL-xL and BCL-2 (BCL-xL/BCL-2): abrogated

- pIC50 (RS4 B-ALL cells): 7.42
- pIC50 (human platelets): 6.51
- pIC50 (MOLT-4 T-ALL cells): 6.66
SMILES: CC1(C)CCC(c2ccc(Cl)cc2)=C(CN2CCN(c3ccc(C(=O)NS(=O)(=O)c4ccc(N[C@H](CCN5CCOCC5)CSc5ccccc5)c(S(=O)(=O)C(F)(F)F)c4)cc3)CC2)C1 [ABT263, Navitoclax]
- Effect of pretreatment on degradation of BCL-xL and BCL-2 with WH244 (BCL-xL/BCL-2; two hours pretreatment, then six-hour WH244, Jurkat cells): completely blocked

SMILES: NS(=O)(=O)OC[C@@H]1C[C@@H](n2ccc3c(N[C@H]4CCc5ccccc54)ncnc32)C[C@@H]1O [MLN4924]
- Effect of proteasome / NEDD8-activating enzyme inhibition on WH244-mediated degradation of BCL-xL and BCL-2 (BCL-xL/BCL-2): abrogated

SMILES: Cc1ncsc1-c1ccc([C@H](C)NC(=O)[C@@H]2C[C@@H](O)CN2C(=O)[C@@H](NC(=O)CCCCCC(=O)N2CCN(CC[C@H](CSc3ccccc3)Nc3ccc(S(=O)(=O)NC(=O)c4ccc(N5CCN(CC6=C(c7ccc(Cl)cc7)CCC(C)(C)C6)CC5)cc4)cc3S(=O)(=O)C(F)(F)F)CC2)C(C)(C)C)cc1 [DT2216]
- Reduction in binding affinity to BCL-xL and BCL-2 on converting ABT263 into DT2216 (BCL-xL and BCL-2): about 8 fold
